{"source": "paper PMC7450057", "about": "“Enhancing intracellular accumulation and target engagement of PROTACs with reversible covalent chemistry” (Nature Communications, 2020)", "key": {"NanoLuc-CRBN fusion": {"target": "T1, NanoLuc-CRBN fusion (Homo sapiens, UniProt Q96SW2)", "T1 construct": "host or cells: HEK 293T/17", "T1 sequence (Q96SW2 whole entry, the tested form may be a part)": "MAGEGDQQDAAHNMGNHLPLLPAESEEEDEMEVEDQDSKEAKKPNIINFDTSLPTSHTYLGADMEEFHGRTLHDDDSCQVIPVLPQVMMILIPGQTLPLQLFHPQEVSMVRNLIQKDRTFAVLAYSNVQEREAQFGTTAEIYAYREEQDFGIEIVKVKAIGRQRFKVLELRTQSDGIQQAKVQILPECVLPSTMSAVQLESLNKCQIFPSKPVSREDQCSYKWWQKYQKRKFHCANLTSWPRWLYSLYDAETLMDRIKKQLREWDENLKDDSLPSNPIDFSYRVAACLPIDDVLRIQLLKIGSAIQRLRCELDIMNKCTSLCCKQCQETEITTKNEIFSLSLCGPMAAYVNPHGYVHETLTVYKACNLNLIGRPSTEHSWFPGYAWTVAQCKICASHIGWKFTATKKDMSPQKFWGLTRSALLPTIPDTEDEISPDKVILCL", "T1 sequence (Q16531 whole entry partner, the tested form may be a part)": "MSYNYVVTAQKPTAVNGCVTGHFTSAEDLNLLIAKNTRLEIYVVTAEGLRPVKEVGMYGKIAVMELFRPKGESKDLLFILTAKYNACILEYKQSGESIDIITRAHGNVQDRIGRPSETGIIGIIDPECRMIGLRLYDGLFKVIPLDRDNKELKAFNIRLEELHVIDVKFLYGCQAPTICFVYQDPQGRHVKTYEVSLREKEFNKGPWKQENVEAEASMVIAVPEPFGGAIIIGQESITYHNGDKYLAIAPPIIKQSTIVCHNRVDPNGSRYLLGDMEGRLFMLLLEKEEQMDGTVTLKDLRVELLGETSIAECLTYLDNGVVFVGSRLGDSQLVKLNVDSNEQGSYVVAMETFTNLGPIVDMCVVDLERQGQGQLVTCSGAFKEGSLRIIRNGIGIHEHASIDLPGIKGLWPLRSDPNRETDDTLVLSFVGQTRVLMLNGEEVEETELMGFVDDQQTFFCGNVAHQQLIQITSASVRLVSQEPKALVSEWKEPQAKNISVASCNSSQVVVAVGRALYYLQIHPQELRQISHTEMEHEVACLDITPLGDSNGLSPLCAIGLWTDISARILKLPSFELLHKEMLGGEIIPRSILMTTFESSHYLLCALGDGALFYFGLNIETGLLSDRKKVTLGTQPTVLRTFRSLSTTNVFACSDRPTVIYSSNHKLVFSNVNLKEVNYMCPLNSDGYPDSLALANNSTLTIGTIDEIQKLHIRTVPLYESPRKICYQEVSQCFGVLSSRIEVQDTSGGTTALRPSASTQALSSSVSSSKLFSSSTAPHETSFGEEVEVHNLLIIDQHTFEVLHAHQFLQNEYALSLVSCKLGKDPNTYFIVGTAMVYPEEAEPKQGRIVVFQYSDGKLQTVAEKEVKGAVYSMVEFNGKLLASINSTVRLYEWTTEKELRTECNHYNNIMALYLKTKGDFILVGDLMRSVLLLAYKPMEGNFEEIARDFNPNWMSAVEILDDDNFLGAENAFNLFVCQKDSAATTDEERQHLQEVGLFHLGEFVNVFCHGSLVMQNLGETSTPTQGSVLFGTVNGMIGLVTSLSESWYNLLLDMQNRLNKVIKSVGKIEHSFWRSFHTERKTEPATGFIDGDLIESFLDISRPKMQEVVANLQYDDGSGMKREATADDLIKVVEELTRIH", "assay": "NanoBRET CRBN in-cell target engagement assay", "type": "cell-based", "conditions": "for NanoBRET(%): Figure 3b", "method_in_brief": "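Live cells expressing NanoLuc-CRBN with tracer and compound were incubated 2 h, then given Nano-Glo substrate plus extracellular NanoLuc inhibitor for 3 min at room temperature.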"}, "BTK": {"target": "BTK (Homo sapiens, UniProt Q06187)", "sequence (Q06187 whole entry)": "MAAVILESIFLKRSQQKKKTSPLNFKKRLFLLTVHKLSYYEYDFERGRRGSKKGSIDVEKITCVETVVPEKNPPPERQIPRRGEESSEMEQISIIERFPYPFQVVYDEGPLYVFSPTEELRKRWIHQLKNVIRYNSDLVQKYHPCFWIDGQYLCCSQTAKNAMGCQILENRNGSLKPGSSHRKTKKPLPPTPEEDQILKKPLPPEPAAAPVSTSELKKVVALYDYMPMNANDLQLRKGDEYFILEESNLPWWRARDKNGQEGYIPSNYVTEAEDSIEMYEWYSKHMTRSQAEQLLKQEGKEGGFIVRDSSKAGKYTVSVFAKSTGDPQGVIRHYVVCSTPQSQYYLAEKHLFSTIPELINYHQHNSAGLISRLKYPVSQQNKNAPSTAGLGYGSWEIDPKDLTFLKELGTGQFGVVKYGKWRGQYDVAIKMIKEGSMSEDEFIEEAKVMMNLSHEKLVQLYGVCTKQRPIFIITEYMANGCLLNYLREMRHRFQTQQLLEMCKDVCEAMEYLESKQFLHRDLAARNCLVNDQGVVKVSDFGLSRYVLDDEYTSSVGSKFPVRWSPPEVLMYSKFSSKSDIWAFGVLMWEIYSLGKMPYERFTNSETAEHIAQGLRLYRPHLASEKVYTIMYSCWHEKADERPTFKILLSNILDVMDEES", "assay": "In vitro BTK kinase assay (PhosphoSens)", "type": "biochemical", "parameters": "purchased SignalChem B10-10H-10"}, "[1]": {"assay": "Permeability by lipid-PAMPA method (Pharmaron)", "type": "in vitro ADME", "conditions": "PAMPA"}, "BTK-NanoLuc fusion": {"target": "T2, BTK-NanoLuc fusion (Homo sapiens, UniProt Q06187)", "T2 construct": "host or cells: HEK 293T/17", "T2 sequence (Q06187 whole entry, the tested form may be a part)": "as the sequence (Q06187 whole entry) above", "assay": "NanoBRET BTK in-cell target engagement assay", "type": "cell-based", "method_in_brief": "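Tracer-displacement IC50 derived from background-corrected BRET ratio (450 nm donor, 610 nm acceptor) in live HEK293/T17 cells transfected with BTK-NanoLuc. Cells were exposed for 2 h at 37 °C to 1.0 µM tracer plus 5-fold serial dilutions of compound from 10 µM.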"}, "Rec-1": {"test_system": "Rec-1", "assay": "IC50 in MCL cell lines (Supplementary Table 2), Rec-1", "conditions": "for Cell Viability (%): Rec-1 cells, replicate wells"}}, "note": "“And” between values parts separate entries of the source, which are not always exact repeats. Equal entries are not always repeated. Where two headings read alike, the source gives them in different places.", "data": [{"smiles": "CN(CCCNC(=O)CNc1cccc2c1C(=O)N(C1CCC(=O)NC1=O)C2=O)C(C)(C)C=C(C#N)C(=O)N1CCC[C@@H](n2nc(-c3ccc(Oc4ccccc4)cc3)c3c(N)ncnc32)C1", "note": "(stereo partly drawn) [RC-1]", "values": [{"measurement": "NanoBRET(%)", "setting": "NanoLuc-CRBN fusion; 1.00E-05 M, triplicates", "result": "21.6334% and 26.3618%"}, {"measurement": "NanoBRET(%)", "setting": "NanoLuc-CRBN fusion; 1.60E-08 M, triplicates", "result": "89.0253% and 93.1823% and 91.5749%"}, {"measurement": "NanoBRET(%)", "setting": "NanoLuc-CRBN fusion; 3.20E-09 M, triplicates", "result": "81.4353% and 98.6889%"}, {"measurement": "NanoBRET(%)", "setting": "NanoLuc-CRBN fusion; 4.00E-07 M, triplicates", "result": "23.5104% and 43.7578% and 36.9762%"}, {"measurement": "NanoBRET(%)", "setting": "NanoLuc-CRBN fusion; 8.00E-08 M, triplicates", "result": "72.3946% and 83.8988% and 65.1002%"}, {"measurement": "IC50", "setting": "NanoLuc-CRBN fusion; HEK-293 cells, CRBN tracer 0.5 µM, triplicates, read-out: CRBN target engagement IC50,TE", "result": 250, "unit": "nM"}, {"measurement": "K′P,D (relative intracellular accumulation coefficient)", "setting": "NanoLuc-CRBN fusion; Kd (CRBN)/IC50,TE (CRBN)", "result": 16.8}, {"measurement": "IC50", "setting": "BTK; AssayQuant BTK assay kit, 2.5 nM BTK, 1 mM ATP, duplicates, read-out: BTK inhibition IC50", "result": 1.8, "unit": "nM"}, {"measurement": "activity at 2.56 pM", "setting": "BTK; Supplementary Figure 5, drug concentration 2.56 pM, replicates, read-out: Inhibition(%)", "result": 87.3, "unit": "%"}, {"measurement": "activity at 12.8 pM", "setting": "BTK; Supplementary Figure 5, drug concentration 12.8 pM, replicates, read-out: Inhibition(%)", "result": 93.2, "unit": "%"}, {"measurement": "activity at 64 pM", "setting": "BTK; Supplementary Figure 5, drug concentration 64 pM, replicates, read-out: Inhibition(%)", "result": 89.4, "unit": "%"}, {"measurement": "activity at 0.00032 µM", "setting": "BTK; Supplementary Figure 5, drug concentration 320 pM, replicates, read-out: Inhibition(%)", "result": 87.3, "unit": "%"}, {"measurement": "activity at 0.0016 µM", "setting": "BTK; Supplementary Figure 5, drug concentration 1600 pM, replicates, read-out: Inhibition(%)", "result": 55, "unit": "%"}, {"measurement": "activity at 0.008 µM", "setting": "BTK; Supplementary Figure 5, drug concentration 8000 pM, replicates, read-out: Inhibition(%)", "result": 8.41, "unit": "%"}, {"measurement": "activity at 0.04 µM", "setting": "BTK; Supplementary Figure 5, drug concentration 40000 pM, replicates, read-out: Inhibition(%)", "result": 3.46, "unit": "%"}, {"measurement": "activity at 0.2 µM", "setting": "BTK; Supplementary Figure 5, drug concentration 200000 pM, replicates, read-out: Inhibition(%)", "result": 2.91, "unit": "%"}, {"measurement": "activity at 1 µM", "setting": "BTK; Supplementary Figure 5, drug concentration 1000000 pM, replicates, read-out: Inhibition(%)", "result": 2.99, "unit": "%"}, {"measurement": "recovery at 16 h, 10 μM", "setting": "[1]; Recovery%", "result": 25.1, "unit": "%"}, {"measurement": "Papp at 16 h, 10 μM", "setting": "[1]; pH 7.4", "result": "< 0.00692", "unit": "×10⁻⁶ cm/s"}, {"measurement": "NanoBRET(%)", "setting": "BTK-NanoLuc fusion; Figure 3c, 1.00E-05 M, triplicates", "result": "5.754% and 14.0151% and 10.6773%"}, {"measurement": "NanoBRET(%)", "setting": "BTK-NanoLuc fusion; Figure 3c, 1.60E-08 M, triplicates", "result": "84.9586% and 87.9015% and 82.5703%"}, {"measurement": "NanoBRET(%)", "setting": "BTK-NanoLuc fusion; Figure 3c, 2.00E-06 M, triplicates", "result": "6.342% and 5.596% and 5.448%"}, {"measurement": "NanoBRET(%)", "setting": "BTK-NanoLuc fusion; Figure 3c, 3.20E-09 M, triplicates", "result": "98.0219% and 99.3574% and 101.289%"}, {"measurement": "NanoBRET(%)", "setting": "BTK-NanoLuc fusion; Figure 3c, 4.00E-07 M, triplicates", "result": "9.4506% and 5.015% and 9.59%"}, {"measurement": "NanoBRET(%)", "setting": "BTK-NanoLuc fusion; Figure 3c, 8.00E-08 M, triplicates", "result": "24.5688% and 19.6512% and 23.4022%"}, {"measurement": "NanoBRET(%)", "setting": "BTK-NanoLuc fusion; Figure 3d, 1.00E-05 M, triplicates", "result": "9.378% and 8.307% and 3.455%"}, {"measurement": "NanoBRET(%)", "setting": "BTK-NanoLuc fusion; Figure 3d, 1.60E-08 M, triplicates", "result": "87.0885% and 73.1635% and 80.126%"}, {"measurement": "NanoBRET(%)", "setting": "BTK-NanoLuc fusion; Figure 3d, 2.00E-06 M, triplicates", "result": "4.9185% and 3.718% and 8.9958%"}, {"measurement": "NanoBRET(%)", "setting": "BTK-NanoLuc fusion; Figure 3d, 3.20E-09 M, triplicates", "result": "95.2579% and 79.7394% and 93.8869%"}, {"measurement": "NanoBRET(%)", "setting": "BTK-NanoLuc fusion; Figure 3d, 4.00E-07 M, triplicates", "result": "11.2221% and 10.3003% and 9.486%"}, {"measurement": "NanoBRET(%)", "setting": "BTK-NanoLuc fusion; Figure 3d, 8.00E-08 M, triplicates", "result": "50.6504% and 43.13% and 35.3416%"}, {"measurement": "IC50", "setting": "BTK-NanoLuc fusion; HEK-293 cells, BTK tracer 1.0 µM, Table 1 / Fig. 3c, triplicates, read-out: BTK TE IC50,TE", "result": 43, "unit": "nM"}, {"measurement": "IC50", "setting": "BTK-NanoLuc fusion; HEK-293 cells, BTK tracer 1.0 µM, experiment of Fig. 3f, read-out: BTK target engagement IC50", "result": 33, "unit": "nM"}, {"measurement": "K′P,D (relative intracellular accumulation coefficient)", "setting": "BTK-NanoLuc fusion; Kd (BTK)/IC50,TE (BTK)", "result": "1.5 × 10^−1"}, {"measurement": "BTK target engagement", "setting": "BTK-NanoLuc fusion; at 40 nM", "result": 50, "unit": "%"}, {"measurement": "BTK target engagement", "setting": "BTK-NanoLuc fusion; at 200 nM", "result": 90, "unit": "%"}, {"measurement": "IC50", "setting": "BTK-NanoLuc fusion; experiment of Fig. 3d, read-out: BTK target engagement IC50", "result": 59, "unit": "nM"}, {"measurement": "IC50", "setting": "Rec-1; Rec-1, triplicates", "result": 4100, "unit": "nM"}, {"measurement": "Cell Viability (%)", "setting": "Rec-1; 1.25E-06 M", "result": "86.4761% and 87.1335% and 88.5619%"}, {"measurement": "Cell Viability (%)", "setting": "Rec-1; 1.56E-07 M", "result": "110.78% and 108.392% and 108.404%"}, {"measurement": "Cell Viability (%)", "setting": "Rec-1; 2.50E-06 M", "result": "70.381% and 67.6766% and 67.9066%"}, {"measurement": "Cell Viability (%)", "setting": "Rec-1; 3.13E-07 M", "result": "100.052% and 101.66% and 95.2827%"}, {"measurement": "Cell Viability (%)", "setting": "Rec-1; 5.00E-06 M", "result": "39.6222% and 42.2011% and 40.0645%"}, {"measurement": "Cell Viability (%)", "setting": "Rec-1; 6.25E-07 M", "result": "96.6812% and 94.3055% and 92.2914%"}, {"measurement": "Cell Viability (%)", "setting": "Rec-1; 7.81E-08 M", "result": "102.045% and 105.031% and 106.253%"}]}]}
